Measurements: patent publication US20230413810A1, “SANITISING FORMULATION” (Lumendo AG, priority 2020, published 2023)

Key:
Assay type in all cases: cell-based
P. aeruginosa = assay: Direct contact test on glass plates, Log10 reduction of P. aeruginosa
[1] = test system: Staphylococcus aureus (ATCC 6538); assay: Direct contact test on glass plates, Log10 reduction of S. aureus (CFU/mL)
Experimental: The anti-microbial-retaining hydrogel formulation was prepared by the addition of Tetronic® 1107 tetramethacrylate (12.64% w/w), prepared according to Example 6, to glycerol (29.48% w/w). Then triethanolamine (0.84% w/w) was added in water (7.58% w/w), diphenyliodonium hexafluorophosphate (0.067% w/w) and 4-(diphenylphosphino)benzoic acid (0.166% w/w) were added in ethanol (8.16% w/w) and a specified amount of anti-microbial agent was added in PBS buffer ×1 (40.01% w/w). The mixture was placed into a thermoshaker and heated and shaken (50° C., 1200 rpm) for 20 minutes. Next, ethyl (2,4,6-trimethylbenzoyl) phenylphosphinate (0.31% w/w) and eosin Y (0.00125% w/w) were added to the mixture in ethanol (4.01% w/w) and the solution was mixed at room temperature for 20 seconds.
A 15 mL falcon tube containing 5 mL of BHI medium was inoculated with Staphylococcus aureus (ATCC 6538) and incubated overnight at 37° C. on a shaker (140 rpm). On the next day, a 15 mL falcon tube containing 5 mL BHI medium was inoculated with 100 μL of the overnight culture and incubated at 37° C. for 3.5 hours at 140 rpm.
Glass plates (18 mm×18 mm) were added with anti-microbial-retaining hydrogel formulation (50 μL) and covered with another glass plate (18 mm×18 mm) in the well of a 6-well plate. Samples were polymerized by the light from the laminar flow hood for 30 minutes. […]
S. aureus cultures were diluted to an OD600 (optical density at λ=600 nm) of 0.2 and 50 μL added to the glass plates (18 mm×18 mm) covered with the anti-microbial retaining hydrogel formulation of the present invention. Samples were covered with a glass plate (18 mm×18 mm) and incubated at 37° C. for 60 minutes. Bacteria were recovered by addition of 1 mL of BHI medium to each well and manually shaking the plate for 30 seconds. From each solution a four times ten-fold dilution series was prepared, resulting in 5 concentrations (each time adding 20 μL of the previous solution to 180 μL of PBS). A BHI agar plate was divided into 5 sectors and from each dilution, three drops of 10 μL were added to one sector. The plates were incubated overnight at 37° C. From the dilution containing 3-30 colonies, the CFU/mL (colony forming units per mL) were calculated and recorded.
Samples were prepared as triplicates. As negative controls, glass plates with no hydrogel and with hydrogel but no anti-microbial agent were prepared. As a control group, glass plates were added with stock solutions of the appropriate disinfectant in PBS (50 μL) at the same concentration as in the hydrogel.
For the washing of samples, the polymerized hydrogel sample was washed with 1 mL PBS solution, after which the PBS solution was removed. The sample was let air dry for 15 minutes before bacterial was then applied as described above.

[2] = test system: Staphylococcus aureus (ATCC 6538); assay: as above; remark: listed apart in the source
[3] = modified anti-microbial agents 1% w/w in hydrogel formulation according to Example 22
[4] = DDAC 0.1% w/w in polymerized hydrogel vs other sanitizing agents on glass surfaces, 0 washes
[5] = DDAC 0.1% w/w in polymerized hydrogel vs other sanitizing agents on glass surfaces, 5 washes with 1 mL water
[6] = unmodified anti-microbial agents 0.1% w/w in hydrogel (Sterilium with no hydrogel), 0 washes with 1 mL water
[7] = unmodified anti-microbial agents 0.1% w/w in hydrogel (Sterilium with no hydrogel), 5 washes with 1 mL water
[8] = unmodified anti-microbial agents 1.0% w/w in hydrogel (Sterilium with no hydrogel), 0 washes with 1 mL water
[9] = unmodified anti-microbial agents 1.0% w/w in hydrogel (Sterilium with no hydrogel), 5 washes with 1 mL water

2-(N,N,N-Cetylmethylbenzylammonium)ethyl methacrylate bromide
Log10 reduction of P. aeruginosa (P. aeruginosa; [3]): <1 Log10
Log10 reduction of S. aureus [1, 3]: >2 Log10

2-(N,N,N-Dodecyldimethylammonium)ethyl methacrylate bromide
Log10 reduction of P. aeruginosa (P. aeruginosa; [3]): 1 Log10
Log10 reduction of S. aureus [1, 3]: 3 Log10

2-(N,N,N-dodecylmethylbenzylammonium)ethyl methacrylate bromide
Log10 reduction of P. aeruginosa (P. aeruginosa; [3]): 3 Log10
Log10 reduction of S. aureus [1, 3]: >4 Log10

9-(N,N,N-Benzylbutylmethylammonium)nonyl methacrylate bromide
Log10 reduction of P. aeruginosa (P. aeruginosa; [3]): 1 Log10
Log10 reduction of S. aureus [1, 3]: <1 Log10

12-(N,N,N-Benzylbutylmethylammonium)dodecyl methacrylate bromide
Log10 reduction of P. aeruginosa (P. aeruginosa; [3]): 1 Log10
Log10 reduction of S. aureus [1, 3]: >4 Log10

12-(N,N,N-Butyldimethylammonium)dodecyl methacrylate bromide
Log10 reduction of P. aeruginosa (P. aeruginosa; [3]): 1 Log10
Log10 reduction of S. aureus [1, 3]: >1 Log10

16-(N,N,N-Benzylbutylmethylammonium)cetyl methacrylate bromide
Log10 reduction of P. aeruginosa (P. aeruginosa; [3]): <1 Log10
Log10 reduction of S. aureus [1, 3]: >4 Log10

C=C(C)C(=O)OCCOCC[n+]1ccc(CCCCCCCCCCCCC)cc1.[Cl-] [2-(4-Tridecylpyridin-1-uim)ethoxyethyl methacrylate chloride]
Log10 reduction of P. aeruginosa (P. aeruginosa; [3]): 1 Log10
Log10 reduction of S. aureus [1, 3]: >4 Log10

C=C(C)C(=O)OCCOCC[n+]1ccc(CCCCCCCCCCCCCCCCC)cc1.[Cl-] [2-(4-heptadecylpyridin-1-uim)ethoxyethyl methacrylate chloride]
Log10 reduction of P. aeruginosa (P. aeruginosa; [3]): <1 Log10
Log10 reduction of S. aureus [1, 3]: >1 Log10

C=C(C)C(=O)OCCOCC[N+](C)(C)CCCCCCCCCCCCCCCC.[Cl-] [2-(N,N,N-Cetyldimethylammonium)ethoxyethyl methacrylate chloride]
Log10 reduction of P. aeruginosa (P. aeruginosa; [3]): >1 Log10
Log10 reduction of S. aureus [1, 3]: >1 Log10

C=C(C)C(=O)OCC[N+](C)(C)CCOCCOc1ccc(C(C)(C)CC(C)(C)C)cc1.[Cl-] [2-(methacryloyloxy)-N,N-dimethyl-N-(2-(2-(4-(2,4,4-trimethylpentan-2-yl)phenoxy)ethoxy)ethyl)ethan-1-aminium chloride]
Log10 reduction of P. aeruginosa (P. aeruginosa; [3]): 1 Log10
Log10 reduction of S. aureus ([2]; 1% w/w in hydrogel, 0 washes with 1 mL water): >4 Log10
Log10 reduction of S. aureus ([2]; 1% w/w in hydrogel, 5 washes with 1 mL water): >3 Log10
Log10 reduction of S. aureus ([2]; 1% w/w in hydrogel, 20 washes with 1 mL water): 4 Log10
Log10 reduction of S. aureus ([2]; 1% w/w in hydrogel, 2 hours soaking in water): >3 Log10
Log10 reduction of S. aureus [1, 3]: >4 Log10

CC(C)O [60% Isopropanol, Isopropanol]
Log10 reduction of S. aureus [2, 4]: >4 Log10
Log10 reduction of S. aureus [2, 5]: <1 Log10

CCO [70% Ethanol, Ethanol]
Log10 reduction of S. aureus [2, 4]: >4 Log10
Log10 reduction of S. aureus [2, 5]: <1 Log10

CC(C)(C)CC(C)(C)c1ccc(OCCOCC[N+](C)(C)Cc2ccccc2)cc1 [Anti-microbial agent on glass surface, benzethonium chloride]
Log10 reduction of S. aureus ([2]; benzethonium chloride 0.1% w/w, on glass with no hydrogel or in polymerized hydrogel, 0 washes with 1 mL water): >4 Log10
Log10 reduction of S. aureus ([2]; benzethonium chloride 0.1% w/w, on glass with no hydrogel or in polymerized hydrogel, 5 washes with 1 mL water): <1 Log10
Log10 reduction of S. aureus ([2]; benzethonium chloride 0.1% w/w, on glass with no hydrogel or in polymerized hydrogel, 10 washes with 1 mL water): <1 Log10
Log10 reduction of S. aureus ([1]; benzethonium chloride 0.1% w/w, on glass with no hydrogel or in polymerized hydrogel, 20 washes with 1 mL water): <1 Log10

CC(C)(C)CC(C)(C)c1ccc(OCCOCC[N+](C)(C)Cc2ccccc2)cc1 [Benzethonium chloride, benzethonium chloride]
Log10 reduction of S. aureus ([2]; 0.1% w/w in hydrogel (Example 28), 0 washes with 1 mL water): 2 Log10
Log10 reduction of S. aureus ([2]; 0.1% w/w in hydrogel (Example 28), 5 washes with 1 mL water): 3 Log10
Log10 reduction of S. aureus ([2]; 0.1% w/w in hydrogel (Example 28), 2 hours soaking in water): 3 Log10
Log10 reduction of S. aureus [2, 6]: 2 Log10
Log10 reduction of S. aureus [2, 7]: 3 Log10
Log10 reduction of S. aureus ([1]; 0.1% w/w in hydrogel (Example 28), 20 washes with 1 mL water): 2 Log10

N=C(NCCCCCCNC(=N)NC(=N)Nc1ccc(Cl)cc1)NC(=N)Nc1ccc(Cl)cc1 [Chlorohexidine]
Log10 reduction of P. aeruginosa (P. aeruginosa; [8]): >2 Log10
Log10 reduction of P. aeruginosa (P. aeruginosa; [9]): >4 Log10
Log10 reduction of S. aureus [2, 6]: >4 Log10
Log10 reduction of S. aureus [2, 7]: >4 Log10

CCCCCCCCCC[N+](C)(C)CCCCCCCCCC.[Cl-] [Didecyldimethylammonium chloride, didecyldimethylammonium chloride]
Log10 reduction of P. aeruginosa (P. aeruginosa; [8]): 2 Log10
Log10 reduction of P. aeruginosa (P. aeruginosa; [9]): >4 Log10
Log10 reduction of S. aureus [2, 6]: >3 Log10
Log10 reduction of S. aureus [2, 7]: >4 Log10

Benzalkonium chloride
Log10 reduction of P. aeruginosa (P. aeruginosa; [8]): >1 Log10
Log10 reduction of P. aeruginosa (P. aeruginosa; [9]): >4 Log10
Log10 reduction of S. aureus [2, 6]: 2 Log10
Log10 reduction of S. aureus [2, 7]: >4 Log10
